biological target: Cystathionine gamma-lyase (Homo sapiens, UniProt P32929)
Sequence (P32929 whole entry): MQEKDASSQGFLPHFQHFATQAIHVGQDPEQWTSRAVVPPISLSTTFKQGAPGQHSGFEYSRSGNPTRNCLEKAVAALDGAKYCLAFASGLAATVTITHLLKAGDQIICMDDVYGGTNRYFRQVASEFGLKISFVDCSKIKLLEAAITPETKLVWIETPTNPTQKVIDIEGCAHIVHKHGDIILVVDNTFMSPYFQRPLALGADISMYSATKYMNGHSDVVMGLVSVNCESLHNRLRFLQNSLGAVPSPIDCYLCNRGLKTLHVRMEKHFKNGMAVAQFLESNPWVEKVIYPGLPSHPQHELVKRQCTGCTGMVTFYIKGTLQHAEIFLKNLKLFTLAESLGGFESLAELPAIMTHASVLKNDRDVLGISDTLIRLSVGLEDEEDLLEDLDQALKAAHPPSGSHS

Row | Structure (SMILES) | IC50 [µM]
1 | C#CCC(N)C(=O)O (configuration not stated) | < 25
2 | C#CC[C@@H](N)C(=O)O | > 100
3 | C#CC[C@H](N)c1nc(C(F)(F)F)n[nH]1 | > 100
4 | C#CC[C@H](N)c1ncn[nH]1 | < 25
5 | N#CCC(N)C(=O)O (configuration not stated) | < 25
6 | C#CC[C@H](N)c1nc(N)n[nH]1 | > 100
7 | C#CC[C@H](N)c1noc(=O)[nH]1 | < 25
